Where a name gives a salt, the structure may show the parent alone. Read-outs that look alike come from different tables or passages of the source. Residues, ends and D or L forms follow the SMILES beside them. *: point of attachment. Cbz = O=C(OCc1ccccc1)* Where only a bound is given, the exact number is not on record here.

The test deals with Ebola virus. In words: microbe, parasite or virus in culture. It counts as cell-based, Ebolavirus (EBOV). The following applies: for Emax: read-out: Max Effect.

`O=c1cnn([C@@H]2O[C@H](CO)[C@@H](O)[C@H]2O)c(=O)[nH]1` [Agent 6-Azauridine, 6-Azauridine]: where the note is “Zaire ebolavirus, Vero”, the IC50 is less than 1 µM and the Emax came out at 80%. Consider `CCCC[C@H]1C(=O)O[C@H](C)[C@H](NC(=O)c2cccc(NC=O)c2OC)C(=O)O[C@@H](C)[C@@H]1OC(=O)CC(C)C` [2-Methoxy-antimycin A3], for which the “Max Effect” value was 0.791. Further, the IC50 (read-out: IC50) turned out to be 1.2 µM. On to `CCOC(=O)C1=C(COCCN)NC(C)=C(C(=O)OC)C1c1ccccc1Cl` (centres unmarked) [Amlodipine Besylate], for which, where the note is “Zaire ebolavirus, Vero”, 13.2 µM corresponded to half-maximal inhibition (IC50) and the Emax was determined as 52.8%. On to `COc1cc([C@@H]2c3cc4c(cc3[C@H](O)[C@H]3COC(=O)[C@H]23)OCO4)cc(OC)c1OC` [Podofilox], for which, where the note is “Zaire ebolavirus, Vero”, the IC50 was determined as 1.8 µM and the Emax is 80%.

Consider `CC(C)C(=O)OCC(=O)[C@@]12O[C@H](C3CCCCC3)O[C@@H]1C[C@H]1[C@@H]3CCC4=CC(=O)C=C[C@]4(C)[C@H]3[C@@H](O)C[C@@]12C` [Ciclesonide], for which, for the setting “Zaire ebolavirus, Vero”, the IC50 was found to be 16 µM and the Emax is 51.2%. Take `CCN(CCCc1ccccc1)CCCc1ccccc1` [Alverine Citrate]: the Emax (Zaire ebolavirus, Vero) came out at 49.5%. Consider `Nc1[nH]c(=O)ncc1F` [Flucytosine], for which, for the setting “Zaire ebolavirus, Vero”, the IC50 amounted to 4.4 µM and the Emax worked out at 79.3%. On to Beta Escin, for which the “Max Effect” value amounted to 0.878. As for `C[C@H]1CCC/C=C/[C@@H]2C[C@H](O)C[C@H]2[C@H](O)/C=C/C(=O)O1` [Brefeldin A], the “Max Effect” value worked out at 0.900. Moreover, the IC50 (read-out: IC50) was less than 1.6 µM. For `C1CCC(C(CC2CCCCN2)C2CCCCC2)CC1` (centres unmarked) [Perhexiline Maleate], where the note is “Zaire ebolavirus, Vero”, it took 4.1 µM to reach half-maximal inhibition (IC50) and the Emax came out at 89%. Guanethidine Monosulfate: the “Max Effect” value came to 0.793. For the same molecule, for the setting “read-out: IC50”, the IC50 is 8.7 µM. Take `CN(C)C(=O)C(CCN1CCC(O)(c2ccc(Cl)cc2)CC1)(c1ccccc1)c1ccccc1` [Loperamide]: the “Max Effect” value was 0.716. On to `CO/C1=C\C(C)=C\[C@@H](C)[C@@H](O)[C@@H](C)C/C(C)=C/C=C/[C@H](OC)[C@@H]([C@@H](C)[C@@H](O)[C@H](C)[C@@]2(O)C[C@@H](O)[C@H](C)[C@@H](C(C)C)O2)OC1=O` [Bafilomycin A1], for which the “Max Effect” value is listed as 0.880. Moreover, the IC50 (read-out: IC50) turned out to be 0.019 µM. Turning to `C#C[C@]1(O)CC[C@H]2[C@@H]3[C@H](C)CC4=C(CCC(=O)C4)[C@H]3CC[C@@]21C` [Tibolone], where the note is “Zaire ebolavirus, Vero”, the IC50 amounted to 1.2 µM and the Emax came out at 112%. Take `O=C(OC[C@H]1O[C@@H](OC(=O)c2cc(O)c(O)c(O)c2)[C@H](OC(=O)c2cc(O)c(O)c(O)c2)[C@@H](OC(=O)c2cc(O)c(O)c(O)c2)[C@@H]1OC(=O)c1cc(O)c(O)c(O)c1)c1cc(O)c(O)c(O)c1` [PGG (1,2,3,4,6-b-O-Pentagalloyl glucose), 1,2,3,4,6-b-O-Pentagalloyl glucose]: the “Max Effect” value is on record as 0.487. The IC50 (read-out: IC50) was determined as 3.2 µM. `COc1cc2c(cc1OC)[C@@H]1C(=O)c3ccc4c(c3O[C@@H]1CO2)C=CC(C)(C)O4` [Deguelin]: where the note is “Zaire ebolavirus, Vero”, the IC50 was 0.5 µM and the Emax was 41.8%. For `N#CC(C#N)=NNc1ccc(OC(F)(F)F)cc1` [Carbonyl cyanide 4-(trifluoromethoxy)phenylhydrazone] the same measures were 4.5 µM and 75.2%. On to `c1ccc2c(c1)[I+]c1ccccc1-2` [Diphenyleneiodonium chloride], for which, for the setting “Zaire ebolavirus, Vero”, the IC50 is less than 1.6 µM and the Emax is 80%. In the case of `CC(=O)OC[C@H]1O[C@@H]([S-])[C@H](OC(C)=O)[C@@H](OC(C)=O)[C@@H]1OC(C)=O.CCP(CC)CC.[Au+]` [Auranofin], the IC50 (read-out: IC50) is less than 1 µM. With `O=C(Nc1ccc([N+](=O)[O-])cc1Cl)c1cc(Cl)ccc1O` [Niclosamide], under “Zaire ebolavirus, Vero”, it took 2.6 µM to reach half-maximal inhibition (IC50) and the Emax worked out at 84.2%.

For `NC(=O)C[C@H](N)C(=O)O` [L-Asparagine], where the note is “Zaire ebolavirus, Vero”, inhibition was half-maximal at 7.2 µM (IC50) and the Emax is 77.1%. For `Oc1c(Cl)cc(Cl)c(Cl)c1Cc1c(O)c(Cl)cc(Cl)c1Cl` [Hexachlorophene] the same measures were 3.2 µM and 71.3%.

With Tunicamycin, the “Max Effect” value was determined as 0.800. Further, the IC50 (read-out: IC50) is less than 0.28 µM. Consider `CC(C)[C@H](NC(=O)OCc1ccccc1)C(=O)N[C@H](C=O)Cc1ccccc1` [Carbobenzoxy-valinyl-phenylalaninal] (Cbz-Val-Phe-aldehyde), for which, under “Zaire ebolavirus, Vero”, the IC50 was 2.9 µM and the Emax was 60.7%. Consider `O=S(=O)([O-])[O-].[Mg+2]` [Magnesium Sulfate], for which the “Max Effect” value was found to be 0.719. The IC50 (read-out: IC50) is 9.2 µM. Turning to `CC(C)[C@]12O[C@H]1[C@@H]1O[C@]13[C@]1(O[C@H]1C[C@H]1C4=C(CC[C@@]13C)C(=O)OC4)[C@@H]2O` [Triptolide], under “Zaire ebolavirus, Vero”, the IC50 is less than 0.1 µM and the Emax was found to be 85%. In the case of `CN1CCN(C(c2ccccc2)c2ccc(Cl)cc2)CC1` (centres unmarked) [Chlorcyclizine Hydrochloride], under “Zaire ebolavirus, Vero”, the Emax was found to be 45.6%. As to `C/C=C(/C)C(=O)O[C@H]1C(C)=C2[C@H]([C@@H]1OC(=O)CCCCCCC)[C@@](C)(OC(C)=O)C[C@H](OC(=O)CCC)[C@@]1(O)[C@H]2OC(=O)[C@@]1(C)O` [Thapsigargin], under “Zaire ebolavirus, Vero”, the IC50 was less than 0.3 µM and the Emax is 70%. For `COc1ccc2cc1Oc1ccc(cc1)C[C@H]1c3c(cc4c(c3Oc3cc5c(cc3OC)CCN(C)[C@@H]5C2)OCO4)CCN1C` [Cepharanthine], in that order: 5.6 µM and 65.2%. As to `CC(C)c1nc(CN(C)C(=O)N[C@H](C(=O)N[C@@H](Cc2ccccc2)C[C@H](O)[C@H](Cc2ccccc2)NC(=O)OCc2cncs2)C(C)C)cs1` [Ritonavir], the Emax (Zaire ebolavirus, Vero) amounted to 48.5%. On to `COc1ccc(C[C@H](N)C(=O)N[C@H]2[C@@H](O)[C@H](n3cnc4c(N(C)C)ncnc43)O[C@@H]2CO)cc1` [Puromycin dihydrochloride], for which, under “Zaire ebolavirus, Vero”, the IC50 came to 6.6 µM and the Emax was determined as 83.5%. For `CN1CCC(CN2c3ccccc3Sc3ccccc32)C1` (centres unmarked) [Methdilazine Hydrochloride] the same measures were 7.1 µM and 51.9%.

With `CCCCCCCCCC(=O)NC(CN1CCOCC1)C(O)c1ccccc1.Cl` (centres unmarked) [PDMP Hydrochloride], the “Max Effect” value was 0.390. On to `CCCCCCCCCCCCCC(=O)O[C@@H]1[C@@H](C)[C@@]2(O)[C@@H](C=C(CO)C[C@]3(O)C(=O)C(C)=C[C@@H]23)[C@@H]2C(C)(C)[C@]12OC(C)=O` [PMA], for which the “Max Effect” value stood at 0.800. In addition, for the setting “read-out: IC50”, the IC50 is less than 0.18 µM. Regarding `CC/C(=C(/CC)c1ccc(O)cc1)c1ccc(O)cc1` [Diethylstilbestrol], for the setting “Zaire ebolavirus, Vero”, the Emax amounted to 43.6%. With `C#C[C@]1(O)CC[C@H]2[C@@H]3CCc4cc(OC5CCCC5)ccc4[C@H]3CC[C@@]21C` [Quinestrol], under “Zaire ebolavirus, Vero”, the IC50 was determined as 7.2 µM and the Emax was found to be 54.9%. For `CC(C)C[C@@H](C=O)NC(=O)[C@H](CC(C)C)NC(=O)[C@H](CC(C)C)NC(=O)OCc1ccccc1` [MG-132] (Cbz-Leu-Leu-Leu-aldehyde), in that order: less than 0.6 µM and 90%. With `CC(=O)O.CC(=O)O.NC(=N\CCCCCC/N=C(N)/N=C(\N)Nc1ccc(Cl)cc1)/N=C(\N)Nc1ccc(Cl)cc1` [Chlorhexidine Diacetate], the “Max Effect” value amounted to 0.543. Besides, the IC50 (read-out: IC50) amounted to 6.1 µM. On to `CN(C)CCOC(C)(c1ccccc1)c1ccc(Cl)cc1` (centres unmarked) [Chlorphenoxamine Hydrochloride], for which, for the setting “Zaire ebolavirus, Vero”, the IC50 came to 5 µM and the Emax came to 78.9%. For `O=c1[nH]c2ccccc2n1CCCN1CCN(C(c2ccccc2)c2ccccc2)CC1` [Oxatomide], in that order: 2.1 µM and 62.2%. For the molecule `O=C([O-])O.[Na+]` [Sodium Bicarbonate], the “Max Effect” value came to 0.389. `Nc1ccc(C(=O)N[C@@H](CCC(=O)O)C(=O)O)cc1` [N-(4-Aminobenzoyl)-L-glutamic acid]: for the setting “Zaire ebolavirus, Vero”, half-maximal inhibition (IC50) required 9.7 µM and the Emax amounted to 85.5%. In the case of `CC(O)(CS(=O)(=O)c1ccc(F)cc1)C(=O)Nc1ccc(C#N)c(C(F)(F)F)c1` (centres unmarked) [Bicalutamide], where the note is “Zaire ebolavirus, Vero”, the Emax was determined as 46.4%. Turning to `O=C(O)Cc1cc(I)c(Oc2ccc(O)c(I)c2)c(I)c1` [Tiratricol], where the note is “Zaire ebolavirus, Vero”, the Emax worked out at 47.8%. The same measure, in the same setting: to `COC(=O)[C@H]1[C@H]2C[C@@H]3c4[nH]c5cc(OC)ccc5c4CCN3C[C@H]2C[C@@H](OC(=O)/C=C/c2cc(OC)c(OC)c(OC)c2)[C@@H]1OC` [Rescinnamine] belongs 51.2%. As to Antimycin A, the “Max Effect” value came to 0.850. Further, under “read-out: IC50”, the IC50 is less than 0.04 µM.

For the molecule `CCCCCCCCOC(=O)c1cc(O)c(O)c(O)c1` [Octyl Gallate], the Emax (Zaire ebolavirus, Vero) was found to be 43.9%. `CCCCCCCCCCCC[N+](C)(C)CCOc1ccccc1` [Domiphen Bromide]: where the note is “Zaire ebolavirus, Vero”, the IC50 was determined as 7.5 µM and the Emax came out at 71.5%.

Turning to `COc1ccc(OC)c2c(=S)c3ccccc3[nH]c12` [NSC 625987], the “Max Effect” value amounted to 0.418. For `C=CC(C)(C)c1cc(/C=C/C(=O)c2ccc(O)cc2)c(OC)cc1O` [Licochalcone-A], the “Max Effect” value is given as 0.522. Also, the IC50 (read-out: IC50) worked out at 4.7 µM. Consider `CNC(=O)c1cc(Oc2ccc(NC(=O)Nc3ccc(Cl)c(C(F)(F)F)c3)cc2)ccn1` [Sorafenib Tosylate], for which, where the note is “Zaire ebolavirus, Vero”, the IC50 was determined as 3.9 µM and the Emax came to 81.9%. Consider `Clc1cc(Cl)c(OCC#CI)cc1Cl` [Haloprogin], for which, for the setting “Zaire ebolavirus, Vero”, half-maximal inhibition (IC50) required 2.9 µM and the Emax was found to be 58.8%. With `CCSc1ccc2c(c1)N(CCCN1CCN(C)CC1)c1ccccc1S2` [Thiethylperazine Maleate], for the setting “Zaire ebolavirus, Vero”, the IC50 is 4.4 µM and the Emax amounted to 83.2%.

Take `CN1CCN(CCCN2c3ccccc3Sc3ccc(C(F)(F)F)cc32)CC1` [Trifluoperazine Hydrochloride]: under “Zaire ebolavirus, Vero”, the IC50 turned out to be 5 µM and the Emax stood at 95.5%. In the case of Sodium Vanadate, the IC50 (read-out: IC50) stood at 13 µM.

For `CN(C)C(=O)C(CCN1CCC(O)(c2ccc(Cl)cc2)CC1)(c1ccccc1)c1ccccc1` [Loperamide Hydrochloride], for the setting “Hydrochloride”, the “Max Effect” value is 0.418. Take `C/C1=C/C(=O)O[C@@H]2C[C@@H](CC[C@H](C)/C=C\CC1)O[C@@](O)([C@@H]1CSC(=O)N1)C2` [Latrunculin B]: the “Max Effect” value amounted to 0.621. In addition, the IC50 (read-out: IC50) stood at 0.4 µM.

The term IC50 denotes the concentration that inhibits the measured activity by half.

(Values after patent US8475804B2 (priority 2009, dated 2013).)
